Data taken from patent US8263642B2, “Antimicrobial compounds and methods of use thereof” (Vanderbilt University, priority 2008, dated 2012).

Columns and labels:
[1] = tested on: HssRS-dependent hrtAB expression; assay: Luminescence-based assay to monitor HssRS-dependent hrtAB expression (phrtABlux reporter), Newman; assay type: cell-based, Staphylococcus aureus; settings: Newman; for Luminescence: raw luminescence value obtained in a luminometer; for activation at 0.0825 µM: Staphylococcus aureus, NEWMAN, read-out: % Lumi, luminescence induced by the compound compared to the heme control (82.5 nM) in the same plate
Description: (§1) With reference to Table 1, “Luminescence” refers to the raw luminescence value obtained in a luminomter. “Control (82.5 nm)” refers to the luminescence value obtained from heme at 82.5 nM as a positive control in the same plate as the experimental. “% lum” is the percentage of luminescence induced by the compound as compared to the heme control in the same plate. […] All of these assays are described in the application. […] “N/T” indicates the test was not performed.
A hrtAB-driven expression system was created in the pXen vector system (Xenogen) (Francis, K. P., D. Joh, C. Bellinger-Kawahara, M. J. Hawkinson, T. F. Purchio, and P. R. Contag. 2000. Monitoring bioluminescent Staphylococcus aureus infections in living mice using a novel luxABCDE construct. Infect Immun 68:3594-3600). This vector contains a promoterless luxCDABE operon from Photorabdus luminescens which produces blue green light when expressed. The luxCDABE encodes for a fatty acid reductase (LuxCDE) that produces a long chain fatty aldehyde which, when combined with cellular flavin mononucleotide, is oxidized by a luciferase (LuxAB) to produce light. Therefore, this system is useful in that it bypasses the need for substrate addition and is capable of generating light in the absence of any added reagents. Furthermore, the luminescent signal produced by the combined activities of LuxAB and LuxCDE is of sufficient intensity to be visualized in unmanipulated intact bacteria.
To establish an assay that measures HssRS-dependent expression of luxCDABE, the promoter for hrtAB upstream of luxCDABE was cloned and transformed this vector (phrtABlux) into wildtype and ΔhssR S. aureus. A promoterless vector (plux) and a plasmid containing luxCDABE under the control of a constitutive promoter (psrtAlux) (Mazmanian, S. K., G. Liu, H. Ton-That, and O. Schneewind. 1999. “Staphylococcus aureus sortase, an enzyme that anchors surface proteins to the cell wall.” Science 285:760-763) were included as negative and positive controls, respectively. Initially, wildtype S. aureus harboring either plux, phrtABlux, or psrtAlux were plated on solid medium that either lacked heme or contained 4 μM heme. Only wildtype S. aureus containing psrtAlux produced light on solid media regardless of the presence or absence of heme. […] Light was not produced by bacteria containing plux in either condition.
To adapt this system for a HTS to measure ligand recognition by HssRS, luminescence of wildtype and ΔhssR harboring the above listed plasmids in liquid media with or without heme was measured. […] Taken together, these experiments establish a whole cell […] assay that can identify small molecule modifiers of HssRS. This screen, in some aspects, can identify molecules that can be used as molecular probes in structure-function analyses to determine the mechanism by which S. aureus sense host heme.
Upon staphylococcal exposure to heme, HssRS senses heme and activates expression of hrtAB. This process can be measured using a reporter assay that employs a vector encoding the light-producing luxCDABE operon under the control of the hrtAB promoter. This assay results in whole cell luminescence upon HssRS-dependent activation of hrtAB, forming the foundation for the development of an assay suitable for high-throughput screens for small molecule activators of HssRS.
To develop an automated HTS format, S. aureus wildtype and ΔhssR harboring reporter constructs (psrtAlux, phrtAlux, plux) can be grown for 15 hours at 37° C. in tryptic soy broth (TSB) containing 10 μg/ml chloramphenicol. The addition of chloramphenicol is useful to ensure that the staphylococci propagate the reporter plasmid upon cell division. Following growth, bacterial cultures can be normalized and 2×10^7 cells (approximately 2 μl) can be added to individual wells of black walled, clear bottomed, 96-well plates. […]

[2] = tested on: hrtAB-driven expression of the xylE reporter gene; assay: XylE reporter assay (hrtAB promoter-xylE), Newman; assay type: cell-based, Staphylococcus aureus; settings: for XylE (0.05): level of XylE induction at 0.05 uM of the compound; for XylE (0.5): level of XylE induction at 0.5 uM of the compound; for XylE (5.0): level of XylE induction at 5.0 uM of the compound; for XylE (50.0): level of XylE induction at 50.0 uM of the compound
Description: as §1
Compounds that activate HssRS-driven hrtAB expression in the luciferase-based screen can be subjected to two separate counter screens to confirm these compounds as active hits. First, compounds of interest can be tested for their ability to activate expression of hrtAB in the XylE expression assay described hereinbelow. This is an in vitro assay that measures hrtAB-driven expression of the xylE reporter gene. The XylE-based reporter assay utilizes slightly more manipulations than the primary luciferase-based screen. […] It should be appreciated that a shortcoming of this counter screen is that it measures reporter gene expression, which is a similar activity as that measured in the primary assay. To address this shortcoming, compounds that are positive in both XylE- and luciferase-based assays can be subjected to a second counter screen as described hereinbelow.
S. aureus strains harboring the appropriate reporter construct were inoculated into 500 μl of TSB containing 10 μg/ml chloramphenicol in 1.5 ml tubes. Cultures were grown O/N at 37° C. with shaking. Bacteria were pelleted by centrifugation and spent medium was aspirated. The pellet was washed once with 500 μl of 20 mM potassium phosphate, pH 7.6, and resuspended in 150 μl of 100 mM potassium phosphate buffer, pH 8.0, 10% (v/v) acetone, 25 μg/ml lysostaphin. After 20 minute incubation at 37° C. and 5 minute incubation on ice, samples were centrifuged at 20,000 g for 30 minutes at 4° C. 1-10 μl of supernatant was added to a 96-well plate and 200 μl of 100 mM potassium phosphate, pH 8.0, 0.2 mM pyrocatechol was added to each well. Formation of 2-hydroxymuconic semialdehyde was tracked by measuring the absorbance at 375 nm every minute for 30 minutes on a Varian MP 50 microplate reader. Protein concentration in samples was determined by BCA (Pierce). One unit of specific activity of XylE in a sample is defined as the formation of 1 nmol of 2-hydroxymuconic semialdehyde per minute per milligram of cellular protein at 30° C. (Chien, Y., Manna, A. C., Projan, S. J., and Cheung, A. L. 1999, “SarA, a global regulator of virulence determinants in Staphylococcus aureus, binds to a conserved motif essential for sar-dependent gene regulation. J. Biol. Chem. 274, 37169-37176).
The hrtAB intergenic region was fused to the xylE structural gene by PCR-SOE. In the first reaction, primer P1B:[…] and P2B:[…] were used to amplify the hrtAB intergenic region from S. aureus strain Newman genomic DNA. In the second PCR reaction primers P3B:[…] and P4B:[…] were used to amplify the xylE structural gene using pALC1639 template DNA (provided by Dr. Ambrose Cheung) and PCR product purified using a Qiagen gel extraction kit. For the PCRSOE reaction, a 1:300 dilution of purified reaction 1 and reaction 2 PCR products was mixed and amplified by PCR using […]. This yielded a construct in which the hrtAB intergenic region is fused to the xylE gene in such a manner that the position of the start codon for xylE corresponds to the position of the start codon for […] in the hrtAB locus. The hrtAB promoter-xylE fusion DNA was then subcloned into pOS1. As a control we also constructed a promoterless xylE vector. The xylE gene was amplified from pACL1639 template DNA using the primers P1C:[…] and P2C:[…] and then cloned into the pOS1 vector.

SMILES | Luminescence [1] | XylE (0.05) [2] | XylE (0.5) [2] | XylE (5.0) [2] | XylE (50.0) [2] | activation at 0.0825 µM [1]
CCOc1ccc(NC(=O)c2sc3nc(C)nc(N4CCCCC4)c3c2C)cc1 | 2277 | 1 | 0.07 | 1 | 1 | 
COc1ccc(Br)cc1C(=O)NC(=S)Nc1cc(C)c(C)cc1O [drawing 24] | 946 | 0.07 | 0.3 | 0.09 | 0.3 | 227%
Oc1ccc(CCNC2CCCc3c2[nH]c2ccc(-c4ccccc4)cc32)cc1 (centres unmarked) | 534 | 0.06 | 0.02 | 1 | 1 | 127%
FC(F)(F)c1cccc(Nc2nc(-c3cccnc3)nc3ccccc23)c1 | 1616 |  | 0.02 | 0.05 | 0.02 | 
CC(/C=N/NC(=O)C1COc2ccccc2O1)=C\c1ccccc1 (centres unmarked) | 507 | 0.07 | 0.04 | 0.2 | 0.05 | 139%
O=C(NC(=S)Nc1ccc(-c2nc3ccccc3s2)cc1)c1ccccc1[N+](=O)[O-] [drawing 23] | 1794 | 0.09 | 0.07 | 0.08 | 0.2 | 374%
O=[N+]([O-])c1ccc(O)c(/C=N/c2ccccc2-c2nc3ccccc3s2)c1 | 2904 | 1 | 50 | 1 | 1 | 630%
O=C(COc1nsnc1N1CCOCC1)Nc1ccccc1 | 1594 |  | 0.05 | 0.02 | 0.03 | 207%
O=C(Nc1ccc(C(F)(F)F)cc1)c1cc(S(=O)(=O)NCc2ccc(F)cc2)ccc1F | 1710 |  | 0 | 0.03 | 0.03 | 493%
O=C(NC(=S)Nc1ccc(-c2nc3ccccc3s2)cc1)c1ccccc1[N+](=O)[O-] [drawing 61] | 1794 | 0.1 | 0.7 | 0.8 | 0.8 | 
Cc1ccc(CNC(=O)c2ccc(CSCc3ccccc3Cl)o2)cc1 | 1603 |  | 0.08 | 0.7 | 0.8 | 192%
Oc1ccc(Nc2n[n+](-c3ccc(Cl)cc3)cc3ccccc23)cc1 | 2098 | 0.5 | 6 | 1 | 0.6 | 
CSc1ccc(NC=C2C(=O)CC(C)(C)CC2=O)cc1 | 1347 | 0.04 | 0.05 | 0.01 | 1 | 161%
CCN(CC)S(=O)(=O)c1cc(C(=O)NC2CCCCCC2)ccc1Cl | 2080 | 1 | 1 | 1 | 0.05 | 759%
Oc1ccccc1-c1nc(NC2CCCC2)c2ccccc2n1 | 1637 |  | 0.09 | 0.02 | 0 | 591%
C/C(=N/NC(=O)c1cccc(I)c1)c1ccccc1O | 5542 | 1 | 0.03 | 0.04 | 0.3 | 
NS(=O)(=O)c1ccc(NC(=O)CCCOc2ccc(Cl)cc2Cl)cc1 | 325 | 0.03 | 0.05 | 3 | 0 | 45.6%
